# Results published in patent publication US9918963B2, “Therapeutic agent for disease based on inhibitory effect of macrophage migration inhibitory factor” (TOYAMA CHEMICAL CO., LTD., priority 2013, dated 2018).
# What was measured:
# MIF = molecular target: T1, MIF (Homo sapiens, UniProt P14174); test: Confirmation of the binding of Compound A and MIF (compound beads pull-down from THP-1 cell lysate, Western blotting); conditions: elution with 0.5 mmol/L Compound A, anti-MIF Western blotting
# T1 construct: (catalogue number not given); host or cells: E. coli BL21 Star (DE3)
# T1 sequence (P14174 2-115 limits assumed): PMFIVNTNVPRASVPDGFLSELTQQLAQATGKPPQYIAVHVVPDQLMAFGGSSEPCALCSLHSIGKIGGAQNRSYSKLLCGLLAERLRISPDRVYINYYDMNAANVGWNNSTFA
# Protocol: THP-1 cells were cultured for about 6 hours in PRMI 1640 medium containing 1% fetal bovine serum and 50 μmol/L 2-mercaptoethanol. Then, lipopolysaccharide (E. coli 0127:B8, Sigma Aldrich) was added to the culture plate at a final concentration of 1 μg/mL, and the cells were cultured for about 30 minutes. The cells were harvested and washed with phosphate buffered saline, and mixed with about 2-fold volume of cell lysis buffer (20 mmol/L Tris, 150 mmol/L sodium chloride, 1 mmol/L magnesium chloride, 0.1% NP-40, 1 mmol/L dithiothreitol, 0.1% Triton X-100, pH 7.4). The resultant mixture was placed on ice with occasional stirring for about 30 minutes, and was centrifuged (20000×g, 4° C., 8 minutes). The separated and gained supernatant was used as cell lysate. Protein concentration of the cell lysate was measured with BCA protein assay reagent (Thermo Fisher Scientific K.K.) in accordance with its manual.
# Immobilization of 4-amino-N-[7-[(methylsulfonyl)amino]-4-oxo-6-phenoxy-4H-1-benzopyran-3-yl]butanamide hydrochloride on Dynabeads M-270 Carboxylic Acid (Life Technologies Corporation) was performed by a general method. […]
# [1] = tested on: chronic relapsing EAE model of mouse; assay type: in vivo
# Protocol: Compound A was selected as a test substance, and salazosulfapyridine (hereinafter referred to as SASP) was selected as a comparative control agent. Compound A was administered at a dose of 30 mg/kg (Compound A group). SASP was administered at a dose of 300 mg/kg (SASP group). In control group and normal group (no induction treatment group), 0.5% methyl cellulose aqueous solution used as vehicle of the administration liquid was administered.
# The chronic relapsing EAE was induced in SJL/J female mice by immunization with partial PLP peptide. Briefly, an emulsion was prepared by mixing equivalent volumes of phosphate buffer saline containing 1 mg/mL of the peptide corresponding to residues 139-151 of the PLP and Freund's […] adjuvant containing 4 mg/mL of killed M. Tuberculosis H37Ra. The emulsion was intradermically injected (50 μg of PLP per mouse) into four positions on the back for immunization, and additionally, on the day of the immunization and two days after, pertussis toxin was intraperitoneally injected in each amount of 150 ng per mouse, twice in total. The vehicle, the test substance or the reference article was orally administered continuously for 44 days once daily from the day of the immunization.
# In the present experiment, paralysis was developed to reach a peak on the 14th to 16th day after the immunization, and the symptom remitted once, but relapsed to reach a peak on the 38th day.
# The symptom was evaluated in accordance with a report of Weaver et al. (FASEB Journal, 2005, vol. 19, p. 1668). Briefly, paralysis of all of the four limbs and the tail was evaluated by scoring in 4 ranks of scores of 0 to 3 and in 3 ranks of scores of 0 to 2, respectively, and the sum of the scores was determined as EAE score (the maximum score 14).
# Incidence rates (the number of mice having developed the disease/the number of used mice) and the average of EAE score of each group were measured at the period of initial onset (on the 15th day after the immunization) and at the period of relapse (on the 38th day after the immunization).
smiles,measurement,setting,value
"CS(=O)(=O)Nc1cc2occ(NC=O)c(=O)c2cc1Oc1ccccc1 [Compound A, N-[7-[(methylsulfonyl)amino]-4-oxo-6-phenoxy-4H-1-benzopyran-3-yl]formamide]",Binding of MIF to Compound A,MIF,specifically binds
same,"EAE score, period of initial onset","[1]; 15th day after immunization, average, maximum score 14, oral once daily (Compound A 30 mg/kg, SASP 300 mg/kg)",1.4
same,"Incidence rate, period of initial onset","[1]; 15th day after immunization, mice having developed the disease/mice used, oral once daily from immunization (Compound A 30 mg/kg, SASP 300 mg/kg)",1/8
same,"EAE score, period of relapse","[1]; 38th day after immunization, average, maximum score 14, oral once daily (Compound A 30 mg/kg, SASP 300 mg/kg)",0.3
same,"Incidence rate, period of relapse","[1]; 38th day after immunization, mice having developed the disease/mice used, oral once daily (Compound A 30 mg/kg, SASP 300 mg/kg)",2/8
same,"Effect on incidence rate / EAE score, paralysis of chronic relapsing EAE","[1]; oral once daily for 44 days from immunization (Compound A 30 mg/kg, SASP 300 mg/kg)",suppressed the occurrence of paralysis
